# From patent US11013696B2, “Lipids and lipid compositions for the delivery of active agents” (Novartis AG, priority 2013, dated 2021)
# Experiment: siRNA encapsulation in lipid nanoparticles (SYBR Gold)
# Assay type: physicochemical
# Conditions: Table 2; FVII siRNA in LNP with the cationic lipid
# Description: The lipid nanoparticles (LNPs) were formed by mixing equal volumes of lipids dissolved in alcohol with siRNA dissolved in a citrate buffer by an impinging jet process. The lipid solution contains a cationic lipid compound of the invention, a helper lipid (cholesterol), an optional neutral lipid (DSPC) and a PEG (PEG) lipid at a concentration of 8-16 mg/mL with a target of 12 mg/mL in an alcohol. The siRNA to total lipid ratio is approximately 0.05 (wt/wt). Where a LNP formulation contains four lipid components, the molar ratios of the lipids ranges from 20 to 70 mole percent for the cationic lipid with a target of 40-60, the mole percent of helper lipid ranges from 20 to 70 with a target of 30 to 50, the mole percent of neutral lipid ranges from 0-30, the mole percent of PEG lipid has a range from 1 to 6 with a target of 2 to 5. The concentration of siRNA solution ranges from 0.7 to 1.0 mg/mL with a target of 0.8 to 0.9 mg/mL in a sodium citrate: sodium chloride buffer pH 4-6, with a target of 4.5-5.5. The LNPs are formed by mixing equal volumes of lipid solution in ethanol with siRNA dissolved in a citrate buffer by an impinging jet process through a mixing device with ID ranging from 0.25 to 2.0 mm at a flow rate from 10 to 640 mL/min. The mixed LNP solution is held at room temperature for 0-24 hrs prior to a dilution step. The solution is then concentrated and diafiltered with suitable buffer by ultrafiltration or dialysis process using membranes with a MW cutoff from 30 to 500 KD. The final product is sterile filtered and stored at 4° C.
# The lipid nanoparticles (LNPs) were formed by mixing equal volumes of lipids dissolved in alcohol with siRNA dissolved in a citrate buffer by an impinging jet process. The lipid solution contains a cationic lipid compound of the invention, a helper lipid (cholesterol), an optional neutral lipid (DSPC) and a stealth lipid (5010, S024, S027, or S031) at a concentration of 8-16 mg/mL with a target of 12 mg/mL in an alcohol. The siRNA to total lipid ratio is approximately 0.05 (wt/wt). Where a LNP formulation contains four lipid components, the molar ratios of the lipids ranges from 20 to 70 mole percent for the cationic lipid with a target of 40-60, the mole percent of helper lipid ranges from 20 to 70 with a target of 30 to 50, the mole percent of neutral lipid ranges from 0-30, the mole percent of PEG lipid has a range from 1 to 6 with a target of 2 to 5. The concentration of siRNA solution ranges from 0.7 to 1.0 mg/mL with a target of 0.8 to 0.9 mg/mL in a sodium citrate: sodium chloride buffer pH 4-6, with a target of 4.5-5.5. The LNPs are formed by mixing equal volumes of lipid solution in ethanol with siRNA dissolved in a citrate buffer by an impinging jet process through a mixing device with ID ranging from 0.25 to 2.0 mm at a flow rate from 10 to 640 mL/min. The mixed LNP solution is held at room temperature for 0-24 hrs prior to a dilution step. The solution is then concentrated and diafiltered with suitable buffer by ultrafiltration process using membranes with a MW cutoff from 30 to 500 KD. The final product is sterile filtered and stored at 4° C.
# SYBR Gold flourescence reagent is used for the determination of siRNA encapsulation in the DLP's. DLP's with and without triton x-100 are used to determine the free siRNA and total siRNA amounts. DLP's samples with and without triton X-100 were excited at 485 nm and flourescence emission is measured at 530 nm. Encapsulation efficiency is calculated based on the following formula: Encapsulation efficiency:[([…])/(total siRNA concentration)]×100% Encapsulation Data
row,% encapsulation siRNA FVII,SMILES
1,91.4%,"CCCCCCCCCCCCC(CCC(=O)OC(COC(=O)CCCCCCCCC)COC(=O)CCCCCCCCC)OC(=O)OCCCN(CC)CC (stereo not shown) [Example 90, 2-((4-(((3-(diethylamino)propoxy)carbonyl)oxy)hexadecanoyl)oxy)propane-1,3-diyl bis(decanoate)]"
2,86.8%,"CCCCC/C=C\C/C=C\CCCCCCCC(=O)OCCC(CCCCCCCCCCCC)OC(=O)OCCCN(C)C (stereo not shown) [Example 43, (9Z,12Z)-3-(((3-(dimethylamino)propoxy)carbonyl)oxy)pentadecyl octadeca-9,12-dienoate]"
3,85.5%,"CCCCCCCCC(CCCCCCCC)CC(=O)OCCC(CCCCCCCCCCOC(=O)CCCCCCC)OC(=O)OCCCN(C)C (stereo not shown) [Example 61, 3-(((3-(dimethylamino)propoxy)carbonyl)oxy)-13-(octanoyloxy)tridecyl 3-octylundecanoate]"
4,85.6%,"CCCCCCCC(=O)OCCCCCCCCCCC(CCOC(=O)CCCC(CCCCCCC)CCCCCCC)OC(=O)OCCCN(C)C (stereo not shown) [Example 63, 3-(((3-(dimethylamino)propoxy)carbonyl)oxy)-13-(octanoyloxy)tridecyl 5-heptyldodecanoate]"
5,82.4%,"CCCCC/C=C\C/C=C\CCCCCCCC(=O)OCCC(CCCCCCCCCCOC(=O)CCCCCCC)OC(=O)OCCCN(C)C (stereo not shown) [Example 60, (9Z,12Z)-3-(((3-(dimethylamino)propoxy)carbonyl)oxy)-13-(octanoyloxy)tridecyl octadeca-9,12-dienoate]"
6,83.4%,"CCCCCCCC(=O)OCCCCCCCCCCC(CCOC(=O)CCCCCCCC(CCCCC)CCCCC)OC(=O)OCCCN(C)C (stereo not shown) [Example 66, 3-(((3-(dimethylamino)propoxy)carbonyl)oxy)-13-(octanoyloxy)tridecyl 9-pentyltetradecanoate]"
7,88.6%,"CCCCC/C=C\C/C=C\CCCCCCCCOC(=O)OCCC(CCCCCCCC/C=C\C/C=C\CCCCC)OC(=O)CCN(C)C (stereo not shown) [Example 54, (12Z,15Z)-1-((((9Z,12Z)-octadeca-9,12-dien-1-yloxy)carbonyl)oxy)henicosa-12,15-dien-3-yl 3-(dimethylamino)propanoate]"

row,SMILES,% encapsulation siRNA FVII
1,"CCCCCCCCCCCCC(CCOC(=O)CCCCCCC(OCCCC)OCCCC)OC(=O)OCCCN(CC)CC (stereo not shown) [Example 20, 3-(((3-(diethylamino)propoxy)carbonyl)oxy)pentadecyl 8,8-dibutoxyoctanoate]",76.7%

# Experiment: Percent encapsulation of mRNA in lipid nanoparticles (Quant-iT Ribogreen)
# Assay type: physicochemical
# Conditions: Table 2; leptin mRNA in LNP with the cationic lipid
# Description: All equipment and disposable supplies are certified free of RNase activity by the manufacturer or rendered RNase free by use of the RNaseZap reagent (LifeTechnologies). mRNA is encapsulated at a cationic lipid amine to mRNA phosphate (N:P) molar ratio of 4:1. Lipids (cationic lipid, DSPC, cholesterol and lipidated PEG or stealth lipid) are dissolved in ethanol. The molar ratios are 40:10:38:2, respectively. The mixture is sonicated briefly, then gently agitated for 5 minutes and then maintained at 37° C. until use. mRNA is exchanged into citrate buffer pH 5.8-6.0 by use of Amicon Ultra-15 centrifugal concentrators, and the final concentration is adjusted to 0.5 mg/ml and held at 37° C. until use. An equal volume of lipids in ethanol, mRNA in citrate buffer, and citrate buffer alone are drawn into disposable syringes. Tubing leading from syringes containing lipids and mRNA are attached to the T junction, and tubing leading from the syringe containing citrate buffer alone is paired with the tubing exiting the T-junction over a collection vessel containing a stir bar on an active stir plate. Syringes are placed in a syringe pump set to expel contents at a flow rate of 1 ml per minute.
# The pump is activated, and the collected mRNA in lipid nanoparticles is transferred to SnakeSkin dialysis tubing (10,000 MWCO, Thermo Scientific). Material is dialyzed against RNAse- and pyrogen-free 1× phosphate buffered saline overnight at 4° C.
# Percent encapsulation of mRNA in lipid nanoparticles is determined using the Quant-iT Ribogreen RNA Assay kit (Life Technologies). The LNP-mRNA suspension is assayed in buffer (mRNA outside the particle), and buffer plus Triton X-100 detergent (total mRNA). The difference calculated is the mRNA inside the particle. Prepare a 1000 ng/mL stock from the RNA provided in the kit and use this to generate a standard curve (0 ng/ml, 15.63-1000 ng/ml) in TE and TE+0.75% Triton X-100. Prepare LNP-mRNA samples in TE buffer and TE buffer +0.75% Triton X-100 with appropriate dilution so that reading is in the range of standard curve (400-2,000 fold). In a 384-well plate (Costar non-treated #3573) add 0.04 ml of standard (in duplicate) or sample (in triplicate) per well. Dilute Ribogreen reagent 240-fold in TE buffer and add 0.06 ml per well. Mix contents of wells and measure fluorescence (excitation=480 nm, emission=520 nm). Subtract background values (no RNA) from standard and test sample values and determine the concentrations of RNA in the samples using the standard curves. Determine the percent encapsulation of the sample by dividing the difference in concentrations between sample+triton and sample in buffer alone by the sample+triton concentration.
row,% encapsulation mRNA Leptin,SMILES
1,48.9%,"CCCCCCCC/C=C\CCCCCCCC(=O)OCC(COC(=O)CCCCCCC/C=C\CCCCCCCC)OC(=O)CCC(CCCCCCCCCCCC)OC(=O)OCCCN(C)C (stereo not shown) [Example 83, (Z)-2-((4-(((3-(dimethylamino)propoxy)carbonyl)oxy)hexadecanoyl)oxy)propane-1,3-diyl dioleate]"
2,71.2%,"CCCCCCCCCCCCC(CCOC(=O)CCCCC(OCCCCCCCC)OCCCCCCCC)OC(=O)CCC1CCN(C)CC1 (stereo not shown) [Example 121, 3-((3-(1-methylpiperidin-4-yl)propanoyl)oxy)pentadecyl 6,6-bis(octyloxy)hexanoate]"
3,12.8%,"CCCCCCCCCCCCC(CCOC(=O)CCCCC(OCCCCCCCC)OCCCCCCCC)OC(=O)[C@@H]1CCCN1C (stereo partly drawn) [Example 118, (2S)-1-((6,6-bis(octyloxy)hexanoyl)oxy)pentadecan-3-yl 1-methylpyrrolidine-2-carboxylate]"
4,93.3%,"CCCCCCCCCCCCC(CCOC(=O)CCCCC(OCCC(CC)CC)OCCC(CC)CC)OC(=O)OCCCN(C)C (stereo not shown) [Example 116, 3-(((3-(dimethylamino)propoxy)carbonyl)oxy)pentadecyl 6,6-bis((3-ethylpentyl)oxy)hexanoate]"
5,97.4%,"CCCCCCCCCCC(CCOC(=O)CCCCC(OCCCCCCCC)OCCCCCCCC)OC(=O)OCCCN(CC)CC (stereo not shown) [Example 126, 3-(((3-(diethylamino)propoxy)carbonyl)oxy)tridecyl 6,6-bis(octyloxy)hexanoate]"
6,97.8%,"CCCCCCCCCCCCC(CCOC(=O)OCCCC(OCCCCCCCC)OCCCCCCCC)OC(=O)OCCCN(CC)CC (stereo not shown) [Example 130, 4,4-bis(octyloxy)butyl (3-(diethylamino)propyl) pentadecane-1,3-diyl dicarbonate]"
7,91.5%,"CCCCCCCCCCCCC(OC(=O)OCCCN(CC)CC)C(=O)OC(COC(=O)CCCCCCC)COC(=O)CCCCCCC (stereo not shown) [Example 100, 2-((2-(((3-(diethylamino)propoxy)carbonyl)oxy)tetradecanoyl)oxy)propane-1,3-diyl dioctanoate)]"
8,37.5%,"CCCCCCCCCCCCC(CCOC(=O)CCCCC(OCCCCCCCC)OCCCCCCCC)OC(=O)OCCN(CC)CC (stereo not shown) [Example 113, 3-(((2-(diethylamino)ethoxy)carbonyl)oxy)pentadecyl 6,6-bis(octyloxy)hexanoate]"
9,94.6%,"CCCCCCCCCCCCC(CCOC(=O)CCCCC(OCCCCCCCC)OCCCCCCCC)OC(=O)OCCCN1CCNCC1 (stereo not shown) [Example 108, 3-(((3-(piperazin-1-yl)propoxy)carbonyl)oxy)pentadecyl 6,6-bis(octyloxy)hexanoate]"
10,87.0%,"CCCCCCCCCCCCC(CCC(=O)OC(COC(=O)CCCCCCCCCCC)COC(=O)CCCCCCCCCCC)OC(=O)OCCCN(C)CC (stereo not shown) [Example 89, 2-((4-(((3-(ethyl(methyl)amino)propoxy)carbonyl)oxy)hexadecanoyl)oxy)propane-1,3-diyl didodecanoate]"
11,59.3%,"CCCCCCCCCCCCC(CCOC(=O)CCCCC(OCCCCCCCC)OCCCCCCCC)OC(=O)OCCCN1CCN(C)CC1 (stereo not shown) [Example 110, 3-(((3-(4-methylpiperazin-1-yl)propoxy)carbonyl)oxy)pentadecyl 6,6-bis(octyloxy)hexanoate]"
